The values below come from article PMC1884159, “The crystal structure of Escherichia coli TdcF, a member of the highly conserved YjgF/YER057c/UK114 family” (BMC Structural Biology, 2007).

Assay [1] concerns the target T1, TdcF (Escherichia coli, UniProt P0AGL2).
T1 construct: recombinant, N-terminal His-tag not cleaved; homotrimer, 14 kDa subunits; ligand sites at subunit interfaces; Cys-36 seen as cysteine sulfonic acid in crystals
Put plainly: X-ray crystal structure, crystal soak. Conditions: 1 mM soak, 2 h, pH 8. In kind it is binding.

For assay [2], the target named is T1, TdcF. Put plainly: X-ray crystal structure, no ligand added (as isolated). In kind it is binding. The conditions noted are these: 1.6 Å; inter-subunit site C only; putative identity from density, threonine an alternative.

SMILES strings stand for the structures.

T1 sequence (P0AGL2 whole entry): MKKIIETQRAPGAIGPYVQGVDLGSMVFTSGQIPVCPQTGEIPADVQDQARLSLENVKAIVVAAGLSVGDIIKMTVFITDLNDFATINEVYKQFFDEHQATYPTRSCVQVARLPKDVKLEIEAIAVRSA

Take `CCC(=O)C(=O)O` [2KT, 2-ketobutyrate]: the “X-ray crystal structure, crystal soak” value at TdcF [1] (1.6 Å, inter-subunit sites A, B and C occupied) was “clear density for a 2-ketobutyrate ligand in each of the three binding sites”.
For `CCC(=O)O` [PPI, propionate], the “X-ray crystal structure, crystal soak” value at TdcF [1] (2.45 Å, inter-subunit sites B and C occupied) was “a propionate molecule could be placed with confidence in both”.
As for `N[C@@H](CO)C(=O)O` [SER, serine], on TdcF [2], the “X-ray crystal structure, no ligand added (as isolated)” value is “with serine as the ligand with its side-chain in two alternative conformations of equal occupancy”.
